Literature values in US12400737B2, “Methods of classifying diffuse large B-cell lymphoma” (CELGENE CORPORATION, priority 2018, dated 2025).

Key:
[1] = system: acute myeloid leukemia (AML); conditions: administered alone
[2] = system: diffuse large B-cell lymphoma (DLBCL); conditions: background statement

| Compound | response in treating AML at relapse [1] | single-agent activity in DLBCL [2] |
| --- | --- | --- |
| CT-011: anti-PD-1 antibody, a humanized antibody | failed to show response | – |
| Nc1cccc2c1CN(C1CCC(=O)NC1=O)C2=O (centres unmarked) [lenalidomide, 3-(4-amino-1-oxo-1,3-dihydro-isoindol-2-yl)-piperidine-2,6-dione] | – | significant single-agent activity |
